In one experiment the target is T1, trypsin (Bos taurus, UniProt P00760).
T1 construct: gene PRSS1
T1 sequence (P00760 24-246): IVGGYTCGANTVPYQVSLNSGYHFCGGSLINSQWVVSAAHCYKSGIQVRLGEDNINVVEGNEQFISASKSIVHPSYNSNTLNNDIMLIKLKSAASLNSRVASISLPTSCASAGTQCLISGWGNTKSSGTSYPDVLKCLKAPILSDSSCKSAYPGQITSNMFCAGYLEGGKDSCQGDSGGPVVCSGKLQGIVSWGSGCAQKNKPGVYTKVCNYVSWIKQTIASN
The experiment in a line: trypsin titration, homogeneous luminescent vs fluorescent substrate assay (Examples 1 and 2). The format is biochemical. To be noted: for limit of detection (trypsin): 3 S.D. above background noise, amount of trypsin. As to the method:
To compare the limit of detection for a luminescence-based and a fluorescence-based assay for trypsin, two substrates, Lys-aminoluciferin (Cbz-modified lysinyl-aminoluciferin) and Arg-Rho-110 (Molecular Probes, Catalog no. R6501), were used. Substrate was resuspended in 100 mM Hepes, pH 7.9, at a concentration of 10 mM and stored at −20° C. The thawed Lys-aminoluciferin substrate, thermostable luciferase (5.2 mg/ml stock), and ATP (0.1 M stock) were diluted in buffer (50 mM HEPES, pH 7.9, 10 mM MgSO4, 1 mM EDTA, pH 8.2 and 0.1% prionex) to make a stock that was 10× the final concentration. The 10× stock was 200 μM Lys-aminoluciferin, 200 μg/ml luciferase, and 2.0 mM ATP. This 10× stock was incubated for at least 90 minutes to eliminate any free aminoluciferin.
Trypsin was prepared for titration as follows: 1 μg/μl stock solution was diluted to 10 ng/50 μl in the same buffer as above (50 mM HEPES, pH 7.9, 10 mM MgSO4, 1 mM EDTA, pH 8.2 and 0.1% prionex). This […] trypsin solution was serially diluted 5 fold to 2 ng, 0.4 ng, 0.08 ng, 0.016 ng, 3.2 pg, 0.64 pg, 0.128 pg, 0.0256 pg and 0.005 pg. The trypsin dilutions were added to two 96-well plates in replicates of 8 at 50 μl per well. Pipette tips were changed for each row to avoid enzyme carryover. Two columns (16 wells) contained buffer only without trypsin.
One of the two plates of the trypsin dilutions was then used to test the Lys-aminoluciferin substrate (FIG. 3). Samples were tested in quadruplicate. The 10× substrate/luciferase/ATP mix was further diluted 5 fold in the above-described buffer to make a 2× stock. 50 μl of this 2× stock was added to each well containing 50 μl of the trypsin titration such that the final 100 μl volume contained 20 μM Lys-aminoluciferin, 200 μM ATP, and 20 μg/ml of thermostable luciferase in buffer (50 mM HEPES, pH 7.9, 10 mM MgSO4, 1 mM EDTA, pH 8.2 and 0.1% prionex). The substrate mix was also added to 12 of the 16 wells containing buffer only without trypsin. The remaining 4 wells were left with buffer only (no substrate mix). This plate was incubated at room temperature and read by luminometer at 45 minutes and 3 hours after adding the substrate mix to the trypsin.
The second plate of trypsin dilutions was used to test the Arg-Rho-110 substrate (FIG. 4). The Arg-Rho-110 substrate was tested at final concentrations of 10 μM and 2.5 μM. 2× stocks of 20 μM and 5 μM were prepared by diluting the substrate in 50 mM HEPES, pH 7.9, 10 mM MgSO4, 1 mM EDTA, pH 8.2 and 0.1% prionex. To each well of the plate containing 50 μl of the trypsin titration was added 50 μl of either the 20 μM or 5 μM 2× stocks of Arg-Rho-110 substrate. The 20 μM stock was added to the first four rows (final concentration of 10 μM in rows A-D) and the 5 μM stock was added to the second four rows (final concentration of 2.5 μM in rows E-H). The substrate mix was also added to 12 of the 16 wells containing buffer only without trypsin. The remaining 4 wells were left with buffer only (no substrate mix). The Arg-Rho-110 plate was incubated at room temperature in the dark for 4.5 hours and read on a fluorimeter.
The signal to noise was calculated as signal-background (no trypsin)/S.D. of background. The limit of detection was determined as 3 S.D. above background noise.
To determine the effect of an overnight pre-incubation of substrate with luciferase, ATP and buffer prior to adding trypsin, a substrate/luciferase/ATP mix was incubated overnight in the dark, at room temperature. […]

Experiment [1] concerns thermostable firefly luciferase. The experiment in a line: luminescent reaction with luciferin or aminoluciferin as luciferase substrate (FIG. 1). Format: biochemical. To be noted: substrate for thermostable firefly luciferase, FIG. 1. The source says:
FIG. 1 depicts relative light units (RLU) for luciferin or aminoluciferin as a substrate for a thermostable firefly luciferase in a luminescent reaction.

Another experiment has as its target T2, caspase 3 (Homo sapiens, UniProt P42574).
T2 construct: approximately 10 mU/ng protein with >75% in active conformation; purchased Upstate Biotech 14-264
T2 sequence (P42574 29-175 limits assumed): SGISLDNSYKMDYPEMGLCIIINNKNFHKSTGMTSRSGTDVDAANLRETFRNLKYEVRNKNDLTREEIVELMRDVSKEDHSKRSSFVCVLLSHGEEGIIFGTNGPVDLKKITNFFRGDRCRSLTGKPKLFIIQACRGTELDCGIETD
T2 sequence (P42574 176-277 limits assumed): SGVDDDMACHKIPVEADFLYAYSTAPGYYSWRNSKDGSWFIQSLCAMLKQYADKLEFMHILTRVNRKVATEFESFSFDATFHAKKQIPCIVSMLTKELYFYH
The experiment in a line: caspase titration, luminescent vs fluorescent substrate in Apo-ONE buffer (Example 3). The format is biochemical. As to the method:
To conduct a direct comparison between luminescent and fluorescent substrates for caspase 3, DEVD-Rho-110 and DEVD-aminoluciferin were employed. The DEVD-aminoluciferin substrate/luciferase/ATP mixture was prepared first and preincubated prior to the enzyme assay to eliminate free aminoluciferin. To 1.25 ml of Apo-ONE™ buffer (Promega) was added 10 μl of DEVD-luciferin (10 mM stock), 10 μl of ATP (0.1 M stock), 50 μl of MgSO4 (1 M stock), 50 μl of prionex (10% stock), and 48 μl of luciferase (5.2 mg/ml stock). The volume was brought up to 2.5 ml with nanopure, autoclaved water to make a 2× stock of 40 μM DEVD-luciferin, 400 μM ATP, 0.2% prionex, and 100 μg/ml luciferase. This stock was incubated overnight at room temperature.
Caspase (Upstate Biotech, Cat. No.14-264; approximately 10 mU/ng protein with >75% in active conformation) was diluted 550 fold in a 50/50 mixture of Apo-ONE™ buffer/RPMI-1640 culture media, from 1 U/μl to 1.8 mU/μl. 50 μl of Apo-One™ buffer/RPMI-1640 media was added to each well in two 96-well plates. Then, 5.5 μl of the caspase stock was added to the 50 μL of Apo-One™ buffer/RPMI-1640 media for a concentration of about 10 mU/50 μl. Ten serial dilutions of 10 fold each were carried out in the wells by serially transferring 5.5 μl of caspase solution into the 50 μl of the buffer/media mix. The final caspase concentrations were 10 mU, 1 mU, 0.1 mU, 0.01 mU, 0.001 mU, 0.1 μU, 0.01 μU, 0.001 μU, 0.1 nU, and 0.01 nU/well. The last two columns were buffer/media only without caspase.
To one plate of caspase dilutions, 50 μl of the DEVD-aminoluciferin substrate mixture was added to each well for final concentrations of 20 μM DEVD-aminoluciferin, 200 μM ATP, 10 mM MgSO4, 0.1% prionex, and 50 μg/ml luciferase. […] Readings were taken for each plate at 1 hour, 3 hours, and 5 hours on a luminometer and fluorimeter, respectively.
Signal to noise was calculated as above and the limit of detection was determined as 3 S.D. above the background noise.

The next experiment concerns Jurkat cells. The experiment can be described thus: caspase activity in Jurkat cells induced to undergo apoptosis with anti-FAS antibody (Example 4). The format is cell-based. To be noted: for sensitivity greater than the Arg-Rho110: Jurkat cells, FIG. 11. As to the method: The DEVD-aminoluciferin caspase substrate and the DEVD-Rho-110 caspase substrate were used to measure caspase activity in Jurkat cells induced to undergo apoptosis with anti-FAS antibody. DEVD-luciferin and luciferase were prepared for pre-incubation prior to use in the assay. Substrate, ATP, MgSO4, prionex and luciferase were diluted from the same stock as in Example 3 to the same 2× concentration, except that the components were diluted in autoclaved water rather than Apo-ONE™. This mixture was incubated overnight in the dark (covered in foil).
The next day, Jurkat cells, grown in RPMI-1640 media with 10% Fetal Bovine Serum (FBS) to a density of 5×10^5 cells/ml, were treated with anti-FAS antibody. To one vial of 8 ml of media was added 1.6 μl of antibody (1:5000 dilution); a second vial contained 8 ml of media and no antibody. Cells were incubated for 4 hours at 37° C., in 5% CO2 Cells were then centrifuged and resuspended in 12.5 ml of RPMI-1640 to a density of 3.2×10^5 cells/ml, then diluted 1:1 with Apo-ONE™ buffer for 1.6×10^5 cells/ml, or 8,000 per 50 μl.
Two 96-well plates were prepared such that on each, the first column was left empty, and 50 μl of RPMI-1640:Apo-ONE™ solution was placed in each of the remaining wells. To the first four rows of each plate, […] of the “induced” cell solution (8,000 cells) was added and the cells then serially diluted from 8,000 cells/well, to 4,000 cells/well and so on, down to 7.8 cells/well. The twelfth column was left without cells and with only 50 μl of RPMI-1640:Apo-ONE™ solution. […]
Signal to noise was calculated (signal minus background (no cell control)/S.D. of background) and the limit of detection was determined as 3 S.D. above the background noise.
One of the two plates was treated with 50 μl of either DEVD-aminoluciferin/luciferase mix or with DEVD-Rho-110/Apo-ONE™ (Promega G778B and G777B). Each plate was mixed on a plate shaker for 30 seconds then incubated at room temperature and read on either a Dynex luminometer or Fluoroskan plate reader at 1 hour, 2 hours, 4 hours and one day later.

Here are results for four compounds from US7384758B2, “Bioluminescent protease assay with modified aminoluciferin or derivatives thereof” (Promeaga Corporation, priority 2002, dated 2008).

Where “and” joins values, the source holds several entries; their conditions need not be identical. Equal values may be shown once.

For the compound `N=C(N)NCCCC(NC(=O)OCc1ccccc1)C(=O)Nc1ccc2c(c1)Oc1cc(NC(=O)C(CCCNC(=N)N)NC(=O)OCc3ccccc3)ccc1C21OC(=O)c2ccccc21` (stereo not drawn) [Arg-Rho-110, reference compound], the “limit of detection (trypsin)” value on trypsin and on trypsin (listed as arginine2-rhodamine-110) was 12 to 30 pg in each case.

The Km is the substrate concentration at which the rate is half of its maximum. As to `O=C(O)[C@H]1CSC(c2nc3ccc(O)cc3s2)=N1` [luciferin], in experiment [1], the Km is approximately 0.6 µM.

On to “Cbz-modified lysinyl-aminoluciferin [Lys-aminoluciferin]”, for which, at trypsin, the “limit of detection (trypsin)” value is recorded as 3.0 pg. In addition, the “sensitivity greater than Arg-Rho-110” value on trypsin (depending on the time of the reading, FIG. 9) is 3-10 fold and 3 to 10 fold. Moreover, at trypsin (luminescent vs rhodamine-110 trypsin substrate), the “less enzyme detected / more sensitive than fluorescence-based assay” value is given as 4-10 times.

Consider “N-(Z-Asp-Glu-Val-Asp)-aminoluciferin [DEVD-aminoluciferin]”, for which, in the experiment with caspase 3 (FIG. 10, Example 3), the “more sensitive than DEVD-Rho-110” value is 10-100 times. The “sensitivity greater than the Arg-Rho110” value in the experiment with caspase 3 (depending on the time of the readings, FIG. 10) is listed as 50-300 fold; in the experiment on Jurkat cells (1 hour time point), 10 fold; in the experiment with Jurkat cells (at 4 hours) it was “about 2 fold”. In the experiment with caspase 3 (substrate for caspase 3 and 7, purified caspase, 3 S.D. above background), the “limit of detection (purified caspase)” value lay in the range of 0.2 to 0.5 μU. Moreover, in the experiment with Jurkat cells (at 1 hour), the “limit of detection of caspase expressing cells” value stood at 15 cells.
